These compounds were tested against T1, matrix metalloproteinase-2 (Homo sapiens, UniProt P08253) (assay: Matrix metalloproteinase-2 inhibitory assay). Conditions: MMP-2 inhibition, 30 min at 37°C, absorbance 450 nm.
T1 construct: purchased not specified for the assay (Sigma Co. recombinant enzyme or a component of the Shanghai Easy Biotech Co. ELISA kit)
T1 sequence (P08253 110-660): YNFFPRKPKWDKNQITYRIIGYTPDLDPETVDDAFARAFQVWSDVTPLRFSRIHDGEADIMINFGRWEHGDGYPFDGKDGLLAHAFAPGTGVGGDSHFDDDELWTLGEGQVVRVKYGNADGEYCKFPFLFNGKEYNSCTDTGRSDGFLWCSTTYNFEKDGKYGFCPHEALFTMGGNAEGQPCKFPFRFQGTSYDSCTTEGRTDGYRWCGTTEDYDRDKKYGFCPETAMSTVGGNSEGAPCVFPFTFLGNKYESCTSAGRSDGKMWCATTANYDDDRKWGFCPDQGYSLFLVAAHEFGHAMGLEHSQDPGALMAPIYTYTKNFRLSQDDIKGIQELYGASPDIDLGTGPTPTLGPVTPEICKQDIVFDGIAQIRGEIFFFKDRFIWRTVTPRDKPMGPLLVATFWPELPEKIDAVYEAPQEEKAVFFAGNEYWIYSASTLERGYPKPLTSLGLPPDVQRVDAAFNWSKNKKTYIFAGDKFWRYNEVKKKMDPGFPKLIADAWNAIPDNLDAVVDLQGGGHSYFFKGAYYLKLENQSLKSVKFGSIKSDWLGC
Assay type: biochemical
Experimental: The inhibitory effects of binding ligands were evaluated as below. […] Test components were dissolved in the buffer to yield a gradient of concentrations between 1 and 200 μM. A total of 50 μl of test components and 100 μl of the enzyme solution were added to a 96-well plate and incubated for 30 min at 37°C. Afterward, the solution in the 96-well plate was discarded. The plate was dried on water adsorbing paper. A total of 200 μl of wash solution was added to each well and incubated for 30 s. Again, the solution in the 96-well plate was abandoned. The plate was dried on water adsorbing paper. This step was carried out five times. A total of 50 μl aliquots of solution A and 50 μl aliquots of solution B were added to each well and kept in a dark place for 15 min. As a result, 50 μl aliquots of stopping solution were pipetted into each well. The plate was monitored at the absorbance of 450 nm by using an automatic microplate reader.

Compound | IC50 [µM]
C[C@@H]1CC[C@]2(C(=O)O[C@@H]3O[C@H](CO)[C@@H](O)[C@H](O)[C@H]3O)CC[C@]3(C)C(=CC[C@@H]4[C@@]5(C)C[C@@H](O)[C@H](O)[C@@](C)(CO)[C@@H]5CC[C@]43C)[C@@H]2[C@]1(C)O [Niga-ichigoside F1] | 20.1 ± 1.55
C[C@@H]1CC[C@]2(C(=O)O[C@@H]3O[C@H](CO)[C@@H](O)[C@H](O)[C@H]3O)CC[C@]3(C)C(=CC[C@@H]4[C@@]5(C)C[C@@H](O)C(=O)C(C)(C)[C@@H]5CC[C@]43C)[C@@H]2[C@]1(C)O [Potentillanoside A] | 25.5 ± 3.01
C[C@@H]1CC[C@]2(C(=O)O[C@@H]3O[C@H](CO)[C@@H](O)[C@H](O)[C@H]3O)CC[C@]3(C)C(=CC[C@@H]4[C@@]5(C)C[C@@H](O)[C@H](O)C(C)(C)[C@@H]5CC[C@]43C)[C@@H]2[C@]1(C)O [Rosamultin] | 20.7 ± 2.06
CC1=C2[C@H](/C=C(\C)C(=O)O)CC[C@@H](C)[C@H]2CC1 [Valerenic acid] | 82.5 ± 8.87
Peduncloside | 23.2 ± 2.53

Results, then the compound that gave them:

IC50 [µM] | Compound
64.1 ± 13.6 | CC1(C)CC[C@]2(C(=O)O)CC[C@]3(C)C(=CC[C@@H]4[C@@]5(C)C[C@H](O)[C@H](O)[C@@](C)(C(=O)O)[C@@H]5CC[C@]43C)[C@@H]2C1 [Medicogenic acid, Medicagenic acid]
37.8 ± 1.96 | O=c1oc2c(O)c(O)cc3c(=O)oc4c(O)c(O)cc1c4c23 [Ellagic acid, reference compound]
30.8 ± 2.13 | Oreganol A
28.6 ± 2.83 | O=C(O[C@@H]1O[C@@H]2COC(=O)c3cc(O)c(O)c(O)c3-c3c(cc(O)c(O)c3O)C(=O)O[C@H]([C@H]1O)[C@@H]2O)c1cc(O)c(O)c(O)c1 [Corilagin]
25.9 ± 5.66 | C=C1[C@H]2C3=CC[C@@H]4[C@@]5(C)C[C@@H](O)[C@H](O)[C@@](C)(CO)[C@@H]5CC[C@@]4(C)[C@]3(C)CC[C@@]2(C(=O)O[C@@H]2O[C@H](CO)[C@@H](O)[C@H](O)[C@H]2O)CC[C@H]1C [Quadranoside VIII]
23.2 ± 4.49 | COC(=O)[C@@]1(C)CC[C@]2(C(=O)O[C@@H]3O[C@H](CO)[C@@H](O)[C@H](O)[C@H]3O)CC[C@]3(C)C(=CC[C@@H]4[C@@]5(C)CC[C@H](O)[C@@](C)(CO)[C@@H]5CC[C@]43C)[C@@H]2C1 [Zebirioside O]
22 ± 2.15 | C[C@@H]1CC[C@]2(C(=O)O[C@@H]3O[C@H](CO)[C@@H](O)[C@H](O)[C@H]3O)CC[C@]3(C)C(=CC[C@@H]4[C@@]5(C)C[C@@H](O)[C@@H](O)C(C)(C)[C@@H]5CC[C@]43C)[C@@H]2[C@]1(C)O [Kajiichigoside F1]

These compounds were tested against T2, MS@PEI@QDs@PEI@MMP-2 (immobilized matrix metalloproteinase-2) (Homo sapiens, UniProt P08253) (assay: Microfluidic chip-based ligand fishing). Conditions: dissociated solution after microfluidic chip-based ligand fishing.
T2 construct: purchased Sigma Co; host or cells: HEK 293 cells
T2 sequence (P08253 110-660): T1 sequence (P08253 110-660)
Assay type: binding
Experimental: All ligand fishing experiments were performed on the microfluidic chip system. The microfluidic chip system consisted of six modules, namely, a microscope stand, a light-emitting diode surface light source, a charge-coupled device (CCD) camera, a temperature controller, an automated x-y-z translation stage (Wuhan Mesovision Biotechnology Co.) for controlling the movement of the microfluidic chip, and four syringe pumps (Baoding Lange Constant Current Pump Co.). Before use, the microfluidic chip was first treated with 1% tween 80 in n-hexadecane (v/v) through port a to make the whole chip surface hydrophobic. […] Under the monitoring of the top-view CCD camera, MS@PEI@QDs@PEI@MMP-2 were infused into the upper left port b, whereas extract of R. roxburghii was infused into upper right port c at an appropriate flow rate to allow the solution to meet the MS@PEI@QDs@PEI @MMP-2 at the junction. The mixture was incubated in the channel for a period. Then, 500 μl aliquots of wash solvent (PBS buffer) were infused into the port d. At the turning point, a small ring magnet trapped the MS@PEI@QDs@PEI@MMP-2. […] The linearity was analyzed by plotting the peak area of the ellagic acid against a series of concentrations (0.009–1.00 mg·ml^−1). The lower limit of quantification was determined as the analytical concentration at an S/N ratio of 10. […] The UV spectra were monitored at 254 nm. […]

extraction yield [%] | Compound
76.6 | CNC(=O)[C@H](Cc1ccccc1)NC(=O)[C@H](CC(C)C)[C@H](CSc1cccs1)C(=O)NO [Batimastat]
